Molecular target: T1, human CCR10 (Homo sapiens, UniProt P46092)
T1 construct: expressed in transfected cells; host or cells: KJMGER8 cells (Namalwa cell-derived line), beta-estradiol-induced; hCCR10G16 cells
T1 sequence (P46092 1-362): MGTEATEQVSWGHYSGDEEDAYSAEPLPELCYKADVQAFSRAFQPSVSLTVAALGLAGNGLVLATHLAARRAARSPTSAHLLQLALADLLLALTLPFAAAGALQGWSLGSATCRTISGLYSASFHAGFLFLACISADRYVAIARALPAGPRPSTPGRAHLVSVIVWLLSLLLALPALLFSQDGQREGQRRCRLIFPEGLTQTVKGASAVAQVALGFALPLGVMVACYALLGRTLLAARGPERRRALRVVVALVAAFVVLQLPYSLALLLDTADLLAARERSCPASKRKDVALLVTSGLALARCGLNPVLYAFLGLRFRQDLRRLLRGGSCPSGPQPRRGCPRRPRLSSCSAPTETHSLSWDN
Test: CCR10 antagonistic effect: calcium assay of human CCR10 (CTACK-induced increase of intracellular calcium in hCCR10G16 cells)
Format: cell-based
Settings: at a concentration of not more than 1000 nmol/L; human CCR10-expressing hCCR10G16 cells, 300 nmol/L CTACK added; read-out: inhibition of increase in the calcium ion concentration
Summary of the method: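 Inhibition of CTACK-evoked calcium flux (max minus min Fluo-3 fluorescence over ~5 min, FDSS) was calculated against control in β-estradiol-induced human CCR10/Gα16 KJMGER8 cells, after 30 min compound preincubation at 37 °C; CTACK added from a 300 nmol/L solution.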

SMILES	inhibition at up to 1 µM [%]
Cc1cc(Cl)ccc1Nc1c(C(=O)N2CCC(c3ccc(F)cc3)CC2)cnc(S(N)(=O)=O)c1Cl [Compound 177, 3-chloro-4-(4-chloro-2-methylphenylamino)-5-[4-(4-fluorophenyl)piperidine-1-carbonyl]pyridine-2-sulfonamide]	≥ 50
Cc1cccc(Oc2c(C(=O)N3CCC(c4ccc(F)cc4)CC3)cnc(S(=O)(=O)Nc3ccon3)c2C)c1 [Compound 249, 5-[4-(4-fluorophenyl)piperidine-1-carbonyl]-N-(isoxazol-3-yl)-3-methyl-4-(m-tolyloxy)pyridine-2-sulfonamide]	≥ 50
CCNC(=O)NS(=O)(=O)c1cc(Nc2cc(C)c(Cl)cc2Cl)c(C(=O)N2CCC(c3ccc(F)cc3)CC2)cn1 [Compound 164, 4-(2,4-dichloro-5-methylphenylamino)-N-(ethylcarbamoyl)-5-[4-(4-fluorophenyl)piperidine-1-carbonyl]pyridine-2-sulfonamide]	≥ 50
CCNC(=O)NS(=O)(=O)c1cc(Nc2cc(C)ccc2Cl)c(C(=O)N2CCC(c3ccc(F)cc3)CC2)cn1 [Compound 161, 4-(2-chloro-5-methylphenylamino)-N-(ethylcarbamoyl)-5-[4-(4-fluorophenyl)piperidine-1-carbonyl]pyridine-2-sulfonamide]	≥ 50
Cc1c(Nc2cc(S(N)(=O)=O)ncc2C(=O)N2CCC(c3ccc(F)cc3)CC2)ccc(Cl)c1F [Compound 59, 4-(4-chloro-3-fluoro-2-methylphenylamino)-5-[4-(4-fluorophenyl)piperidine-1-carbonyl]pyridine-2-sulfonamide]	≥ 50
Cc1cccc(Sc2c(C(=O)N3CCC(c4ccc(F)cc4)CC3)cnc(S(N)(=O)=O)c2Cl)c1 [Compound 210, 3-chloro-5-[4-(4-fluorophenyl)piperidine-1-carbonyl]-4-(m-tolylthio)pyridine-2-sulfonamide]	≥ 50
CC(=O)C1(c2ccc(F)cc2)CCN(C(=O)c2cnc(S(N)(=O)=O)c(Cl)c2Nc2cccc(C)c2)CC1 [Compound 216, 5-[4-acetyl-4-(4-fluorophenyl)piperidine-1-carbonyl]-3-chloro-4-(m-tolylamino)pyridine-2-sulfonamide]	≥ 50
Cc1c(S(=O)(=O)Nc2ccon2)ncc(C(=O)N2CCC(c3ccc(F)cc3)CC2)c1Nc1cc(F)cc(F)c1F [Compound 275, 5-[4-(4-fluorophenyl)piperidine-1-carbonyl]-N-(isoxazol-3-yl)-3-methyl-4-(2,3,5-trifluorophenylamino)pyridine-2-sulfonamide]	≥ 50
Cc1cc(NS(=O)(=O)c2ncc(C(=O)N3CCC(c4ccc(F)cc4)CC3)c(Nc3cc(F)ccc3F)c2C)sn1 [Compound 315, 4-(2,5-difluorophenylamino)-5-[4-(4-fluorophenyl)piperidine-1-carbonyl]-3-methyl-N-(3-methylisothiazol-5-yl)pyridine-2-sulfonamide]	≥ 50
NS(=O)(=O)c1cc(Nc2ccc(Cl)cc2Cl)c(C(=O)N2CCC(c3ccc(F)cc3)CC2)cn1 [Compound 81, 4-(2,4-dichlorophenylamino)-5-[4-(4-fluorophenyl)piperidine-1-carbonyl]pyridine-2-sulfonamide]	≥ 50
NS(=O)(=O)c1cc(Nc2ccc3c(c2)CCO3)c(C(=O)N2CCC(c3ccc(F)cc3)CC2)cn1 [Compound 94, 4-(2,3-dihydrobenzofuran-5-ylamino)-5-[4-(4-fluorophenyl)piperidine-1-carbonyl]pyridine-2-sulfonamide]	≥ 50
Cc1cc(C(F)(F)F)ccc1Nc1cc(S(N)(=O)=O)ncc1C(=O)N1CCC(c2ccc(F)cc2)CC1 [Compound 100, 5-[4-(4-fluorophenyl)piperidine-1-carbonyl]-4-[2-methyl-4-(trifluoromethyl)phenylamino]pyridine-2-sulfonamide]	≥ 50
Cc1cc(F)ccc1Nc1cc(S(=O)(=O)NC(=O)NC(C)C)ncc1C(=O)N1CCC(c2ccc(F)cc2)CC1 [Compound 171, 4-(4-fluoro-2-methylphenylamino)-5-[4-(4-fluorophenyl)piperidine-1-carbonyl]-N-(isopropylcarbamoyl)pyridine-2-sulfonamide]	≥ 50
N#Cc1cc(OC(F)(F)F)ccc1Nc1c(C(=O)N2CCC(c3ccc(F)cc3)CC2)cnc(S(N)(=O)=O)c1Cl [Compound 256, 3-chloro-4-[2-cyano-4-(trifluoromethoxy)phenylamino]-5-[4-(4-fluorophenyl)piperidine-1-carbonyl]pyridine-2-sulfonamide]	≥ 50
NS(=O)(=O)c1ncc(C(=O)N2CCC(c3ccc(F)cc3)CC2)c(NC2CCCCC2)c1Cl [Compound 45, 3-chloro-4-(cyclohexylamino)-5-[4-(4-fluorophenyl)piperidine-1-carbonyl]pyridine-2-sulfonamide]	≥ 50
COc1ccc(C#N)c(Nc2c(C(=O)N3CCC(c4ccc(F)cc4)CC3)cnc(S(N)(=O)=O)c2Cl)c1 [Compound 321, 3-chloro-4-(2-cyano-5-methoxyphenylamino)-5-[4-(4-fluorophenyl)piperidine-1-carbonyl]pyridine-2-sulfonamide]	≥ 50
CCOC(=O)NS(=O)(=O)c1cc(Nc2ccc(Cl)cc2C)c(C(=O)N2CCC(c3ccc(F)cc3)CC2)cn1 [Compound 173, ethyl 4-(4-chloro-2-methylphenylamino)-5-[4-(4-fluorophenyl)piperidine-1-carbonyl]pyridin-2-ylsulfonylcarbamate]	≥ 50
Cc1cc(F)ccc1Nc1cc(S(=O)(=O)NC(=O)NC2CC2)ncc1C(=O)N1CCC(c2ccc(F)cc2)CC1 [Compound 172, N-(cyclopropylcarbamoyl)-4-(4-fluoro-2-methylphenylamino)-5-[4-(4-fluorophenyl)piperidine-1-carbonyl]pyridine-2-sulfonamide]	≥ 50
N#Cc1ccc(Cl)cc1Nc1c(C(=O)N2CCC(c3ccc(F)cc3)CC2)cnc(S(N)(=O)=O)c1Cl [Compound 290, 3-chloro-4-(5-chloro-2-cyanophenylamino)-5-[4-(4-fluorophenyl)piperidine-1-carbonyl]pyridine-2-sulfonamide]	≥ 50
Cc1cc(F)ccc1Nc1cc(S(=O)(=O)O)ncc1C(=O)N1CCC(c2ccc(F)cc2)CC1 [Compound 1, 4-(4-fluoro-2-methylphenylamino)-5-[4-(4-fluorophenyl)piperidine-1-carbonyl]pyridine-2-sulfonic acid]	≥ 50
CCc1ccc(Nc2c(C(=O)N3CCC(c4ccc(F)cc4)CC3)cnc(S(N)(=O)=O)c2Cl)cc1 [Compound 310, 3-chloro-4-(4-ethylphenylamino)-5-[4-(4-fluorophenyl)piperidine-1-carbonyl]pyridine-2-sulfonamide]	≥ 50
Cn1ncc2cc(Nc3c(C(=O)N4CCC(c5ccc(F)cc5)CC4)cnc(S(N)(=O)=O)c3Cl)ccc21 [Compound 242, 3-chloro-5-[4-(4-fluorophenyl)piperidine-1-carbonyl]-4-(1-methyl-1H-indazol-5-ylamino)pyridine-2-sulfonamide]	≥ 50
Cc1ccc(Nc2cc(S(N)(=O)=O)ncc2C(=O)N2CCC(c3ccc(F)cc3)CC2)cc1F [Compound 64, 4-(3-fluoro-4-methylphenylamino)-5-[4-(4-fluorophenyl)piperidine-1-carbonyl]pyridine-2-sulfonamide]	≥ 50

Source: patent publication US9701689B2, “Substituted pyridines and pyridazines as CCR10 receptor inhibitors” (KYOWA HAKKO KIRIN CO., LTD., priority 2012, dated 2017)
